Results published in US11034681B2, “Crystal form of indole derivative and preparation method and use thereof” (CHIA TAI TIANQING PHARMACEUTICAL GROUP CO., LTD., priority 2018, dated 2021).
pIC50: −log10 of the molar value. Blank lines part the entries; values can stand above or below the compound they belong to.

Columns and labels:
[1] = target: T1, CRTH2 receptor (Homo sapiens, UniProt Q9Y5Y4); assay: PathHunter CHO-K1 CRTH2 β-arrestin antagonist assay; type: cell-based; conditions: PathHunter CHO-K1 CRTH2 β-arrestin cells, PGD2 agonist at EC80
T1 sequence (Q9Y5Y4 1-395): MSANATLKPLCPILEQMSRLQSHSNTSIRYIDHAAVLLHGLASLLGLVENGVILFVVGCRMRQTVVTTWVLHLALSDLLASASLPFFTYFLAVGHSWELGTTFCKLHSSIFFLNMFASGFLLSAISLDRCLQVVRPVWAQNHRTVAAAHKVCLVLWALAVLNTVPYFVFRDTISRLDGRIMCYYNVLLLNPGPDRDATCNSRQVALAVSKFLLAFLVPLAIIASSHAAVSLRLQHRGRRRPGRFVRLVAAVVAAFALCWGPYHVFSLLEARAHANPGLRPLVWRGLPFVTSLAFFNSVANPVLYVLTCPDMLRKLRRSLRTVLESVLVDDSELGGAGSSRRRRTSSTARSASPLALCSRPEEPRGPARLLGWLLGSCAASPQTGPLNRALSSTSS
Protocol: PathHunter® CHO-K1 CRTH2 β-arrestin cells (DiscoverX, catalogue number 93-0291C2) grew under standard conditions, and were inoculated into a white-wall 384-well microplate at a density of 5,000 cells/well. 20 μL of Cell Plating Reagent 1 was used in each well. Before the test, the cells were incubated overnight at 37° C./5% CO2. A test compound was serially diluted in DMSO with a dilution factor of 3-fold to give 8 concentrations of the test compound. Shortly before the test, the serially diluted test compound was further diluted with the test buffer to 5 times of the test concentration. 5 μL of the further diluted test compound was added to the cells, and the cells were incubated for 30 min at 37° C. The concentration of the solvent was 1%. 5 μL of 6×EC80 agonist (PGD2) buffer was added to the cells, and the cells were incubated for 90 min at 37° C. Measured signals were generated by one-time addition of 15 μL (50% v/v) of PathHunter detection mixture reagent and subsequent one-hour incubation. The microplate was read through the chemiluminescent signals of PerkinElmer Envision™ reader. Biological activity of the test compound was analyzed by CBIS data analysis suite (ChemInnovation, CA), and was denoted as IC50 value.

[2] = Plasma pharmacokinetic assay in mice; type: in vivo; conditions: mouse, female C57 BL/6 mice
Protocol: Twelve female C57 BL/6 mice were used in plasma pharmacokinetic assay, randomly divided into two groups, with 6 animals in each group. Animals in the first group were administered intravenously 1 mg/kg of the test drug, and animals in the second group were administered intragastrically 5 mg/kg of the test drug. A formula comprising HPbCD and cosolvent (Solutol®) was used as formulation vehicle, and the obtained intravenous or intragastric formulations were all clear solutions. For animals in the intravenous group and the intragastric group, blood was collected from the saphenous vein at 0.0833, 0.25, 0.5, 1, 2, 4, 8, and 24 hours after administration, with 3 samples at each time point. Plasma samples collected from the intragastric administration group were frozen at −80° C. and thawed before LC-MS/MS sample analysis. The thawed plasma samples were subjected to protein precipitation by adding acetonitrile containing an internal standard in a certain ratio, and centrifuged to obtain a supernatant for LC-MS/MS injection. AP14000 or 5500 was used as the analytical instrument, ACQUITY UPLC BEH C18 (2.1×50 mm, 1.7 μm) was used as the chromatographic column, and the ionization of the test compound was performed by an ESI positive or negative ion source. There were 8 concentrations of the standard sample in each analysis batch, the ratio of the peak area of the test compound to the peak area of the internal standard (IS) was noted as Y, the concentration of the test compound in the plasma sample was noted as X, 1/x^2 was taken as the weighting coefficient to carry on the linear regression, and the regression equation of response and concentration was obtained. There were also corresponding quality control samples in each analysis batch. Phoenix 6.3 WinNonlin® was used for data processing to give corresponding PK parameters.

[3] = Solid stability test of crystal form A (crystal form); type: physicochemical
From the text: (§1) Samples placed under high temperature and high humidity conditions were sealed with aluminum foil, and small holes were made in the foil to ensure that the samples can fully contact with ambient air. Samples placed under strong light conditions were sealed with screw caps.

[4] = Stability test of crystal form A (impurity content); type: physicochemical
From the text: as §1

[5] = tested on: mice model of chronic/acute asthma induced by ovalbumin (OVA) and aluminum hydroxide (Al(OH)3); assay: Mice model of chronic/acute asthma induced by OVA and Al(OH)3; type: in vivo
[6] = target: T1, CRTH2 receptor; conditions: background statement; cited from earlier work

pIC50 [1]: > 7.00
Structure (SMILES): Cc1c(Cc2ccc3c(c2)C(F)(F)CCS3(=O)=O)c2cc(F)ccc2n1CC(=O)O [Compound 1]

clearance ([2]; intravenous 1 mg/kg, read-out: Clearance Rate of Intravenous Administration (Cl, mL/min/kg)): 4.55 mL/min/kg
half-life ([2]; po, intragastric 5 mg/kg, read-out: Half-life of Intragastric Administration (T1/2, hr) (converted)): 3.19 h
Cmax ([2]; po, intragastric 5 mg/kg, read-out: Maximum Blood Concentration of Intragastric Administration (Cmax)): 6.77 µM
AUC ([2]; po, intragastric 5 mg/kg, read-out: Plasma Exposure of Intragastric Administration (AUC, nM*hr)): 26000 nM·h
Crystal Form ([3]; 40° C, Reletive Humidity 75%, Exposure, day 10): Crystal Form A
Crystal Form ([3]; 40° C, Reletive Humidity 75%, Exposure, day 30): Crystal Form A
Crystal Form ([3]; 40° C, Reletive Humidity 75%, Exposure, day 60): Crystal Form A
Crystal Form ([3]; 40° C, Reletive Humidity 75%, Exposure, day 90): Crystal Form A
Crystal Form ([3]; 60° C, Reletive Humidity 75%, Exposure, day 10): Crystal Form A
Crystal Form ([3]; 60° C, Reletive Humidity 75%, Exposure, day 30): Crystal Form A
Crystal Form ([3]; 60° C, Reletive Humidity 75%, Exposure, day 60): Crystal Form A
Crystal Form ([3]; 60° C, Reletive Humidity 75%, Exposure, day 90): Crystal Form A
Crystal Form ([3]; High Humidity (Room temperature/Reletive Humidity 92.5%, Exposure), day 5): Crystal Form A
Crystal Form ([3]; High Humidity (Room temperature/Reletive Humidity 92.5%, Exposure), day 10): Crystal Form A
Crystal Form ([3]; High Temperature (60° C., Exposure), day 5): Crystal Form A
Crystal Form ([3]; High Temperature (60° C., Exposure), day 10): Crystal Form A
Crystal Form ([3]; Strong Light (5000 lx, Sealed), day 5): Crystal Form A
Crystal Form ([3]; Strong Light (5000 lx, Sealed), day 10): Crystal Form A
Crystal Form ([3]; day 0): Crystal Form A
Impurity Content ([4]; 0 Day (Table 5)): 0.07%
Impurity Content ([4]; 25° C/60% RH, 3 months): 0.09%
Impurity Content ([4]; 25° C/60% RH, 6 months): 0.13%
Impurity Content ([4]; 30° C/65% RH, 3 months): 0.09%
Impurity Content ([4]; 30° C/65% RH, 6 months): 0.15%
Impurity Content ([4]; 40° C/75% RH, 0 Day (Table 6)): 0.07%
Impurity Content ([4]; 40° C/75% RH, 1 month): 0.17%
Impurity Content ([4]; 40° C/75% RH, 2 months): 0.13%
Structure (SMILES): Cc1c(Cc2ccc3c(c2)C(F)(F)CCS3(=O)=O)c2cc(F)ccc2n1CC(=O)O [Crystal Form A of Compound 1]
number of eosinophils [5]: significantly reduce the number of eosinophils

Structure (SMILES): O=C(O)CCn1c2c(c3ccccc31)C[C@H](NS(=O)(=O)c1ccc(F)cc1)CC2 [Ramatroban]
CRTH2 receptor antagonism [6]: weak CRTH2 receptor antagonist
